# In US20080009540A1, “Amorphous Atorvastatin Calcium” (priority 2004, published 2008):
# Where a name gives a salt, the structure may show the parent alone.
# Legend:
# Assay type in all cases: physicochemical
# [1] = Storage stability of commercial-sized batch of amorphous atorvastatin calcium, Example 8 packaging
# Source text: A commercial-sized batch of amorphous atorvastatin calcium was packaged as follows:
# a) amorphous atorvastatin calcium having a 6 percent w/w water content was initially placed into a clear polyethylene bag, air was removed, and the clear polyethylene bag was tied;
# b) the tied clear polyethylene bag was placed into a black polyethylene bag along with a silica gel pouch and a package of oxygen absorbent, and then the black polyethylene bag was purged with nitrogen and sealed; and
# c) the sealed black polyethylene bag was placed in a triple laminated bag along with a silica gel pouch, then the laminated bag was purged with nitrogen and sealed.
# [2] = Storage stability of amorphous atorvastatin calcium, Example 6 packaging (6 percent w/w water; nitrogen, silica gel)
# Source text: The following packaging procedure was followed: 1) amorphous atorvastatin calcium having a 6 percent w/w water content was initially packed in a polyethylene bag, which was then tied; 2) the tied polyethylene bag was placed in a black polyethylene bag with a silica gel pouch under a nitrogen atmosphere and then sealed; 3) the sealed black polyethylene bag was placed in a triple laminated bag along with a silica gel pouch, was purged with nitrogen, and sealed; and 4) the sealed laminated bag was stored in a HDPE drum.
# table, where water was determined by the Karl Fischer method, and total organic impurities are expressed as area-percent, as determined by high performance liquid chromatography.
# [3] = Storage stability of amorphous atorvastatin calcium, Example 7 packaging (2 percent w/w moisture; nitrogen, silica gel, oxygen absorbent)
# Source text: The following packaging procedure was followed: 1) amorphous atorvastatin calcium having a 2 percent w/w moisture content was placed in a white polyethylene bag, the bag was purged with nitrogen, and then the bag was tied; 2) the tied white polyethylene bag was placed into a black polyethylene bag, along with a silica gel pouch and a bag of oxygen absorbent, then the black bag was purged with nitrogen and sealed; 3) the sealed black polyethylene bag was placed into a triple laminated bag along with a silica gel pouch, and then the laminated bag was purged with nitrogen and sealed; and 4) the sealed laminated bag was stored in a HDPE drum.
# [4] = 25° C. and 60% relative humidity, 1 Month
# [5] = 25° C. and 60% relative humidity, 2 Month
# [6] = 25° C. and 60% relative humidity, 3 Month
# [7] = 25° C. and 60% relative humidity, Initial
# [8] = 40° C. and 75% relative humidity, 1 Month
# [9] = 40° C. and 75% relative humidity, 2 Month
# [10] = 40° C. and 75% relative humidity, 3 Month
# [11] = 40° C. and 75% relative humidity, 15 Days
# [12] = 40° C. and 75% relative humidity, 45 Days
# [13] = 40° C. and 75% relative humidity, Initial
# [14] = 25° C. and 60% relative humidity, 2 Months
# [15] = 25° C. and 60% relative humidity, 45 Days
# [16] = 40° C. and 75% relative humidity, 2 Months
# [17] = all three storage conditions, up to 2 Months
smiles,measurement,setting,value
"CC(C)c1c(C(=O)Nc2ccccc2)c(-c2ccccc2)c(-c2ccc(F)cc2)n1CC[C@@H](O)C[C@@H](O)CC(=O)O (relative stereo) [amorphous atorvastatin calcium, [R-(R*,R*)]-2-(4-fluorophenyl)-β,δ-dihydroxy-5-(1-methylethyl)-3-phenyl-4-[(phenylamino)carbonyl]-1H-pyrrole-1-heptanoic acid, calcium salt (2:1)]",Total Impurities,"[1]; 2 to 8° C., 1 Month",0.37 area-percent
same,Wt. Percent H2O,"[1]; 2 to 8° C., 1 Month",5.4 Wt. Percent
same,Total Impurities,"[1]; 2 to 8° C., 2 Month",0.36 area-percent
same,Wt. Percent H2O,"[1]; 2 to 8° C., 2 Month",5.3 Wt. Percent
same,Total Impurities,"[1]; 2 to 8° C., 3 Month",0.34 area-percent
same,Wt. Percent H2O,"[1]; 2 to 8° C., 3 Month",5.4 Wt. Percent
same,Total Impurities,"[1]; 2 to 8° C., Initial",0.35 area-percent
same,Wt. Percent H2O,"[1]; 2 to 8° C., Initial",5.4 Wt. Percent
same,Total Impurities,[1]; [4],0.41 area-percent
same,Wt. Percent H2O,[1]; [4],4.6 Wt. Percent
same,Total Impurities,[1]; [5],0.42 area-percent
same,Wt. Percent H2O,[1]; [5],4.8 Wt. Percent
same,Total Impurities,[1]; [6],0.40 area-percent
same,Wt. Percent H2O,[1]; [6],4.9 Wt. Percent
same,Total Impurities,[1]; [7],0.35 area-percent
same,Wt. Percent H2O,[1]; [7],5.4 Wt. Percent
same,Total Impurities,[1]; [8],0.45 area-percent
same,Wt. Percent H2O,[1]; [8],4.3 Wt. Percent
same,Total Impurities,[1]; [9],0.47 area-percent
same,Wt. Percent H2O,[1]; [9],4.5 Wt. Percent
same,Total Impurities,[1]; [10],0.48 area-percent
same,Wt. Percent H2O,[1]; [10],5.0 Wt. Percent
same,Total Impurities,[1]; [11],0.39 area-percent
same,Wt. Percent H2O,[1]; [11],4.8 Wt. Percent
same,Total Impurities,[1]; [12],0.45 area-percent
same,Wt. Percent H2O,[1]; [12],4.3 Wt. Percent
same,Total Impurities,[1]; [13],0.35 area-percent
same,Wt. Percent H2O,[1]; [13],5.4 Wt. Percent
same,Change during the storage periods,"[1]; all three storage conditions, up to 3 Month",did not change appreciably
same,Total Impurities,"[2]; 2 to 8° C., 2 Months",0.47 area-percent
same,Wt. Percent H2O,"[2]; 2 to 8° C., 2 Months",4.80 Wt. Percent
same,Total Impurities,"[2]; 2 to 8° C., 45 Days",0.46 area-percent
same,Wt. Percent H2O,"[2]; 2 to 8° C., 45 Days",4.50 Wt. Percent
same,Total Impurities,"[2]; 2 to 8° C., Initial",0.37 area-percent
same,Wt. Percent H2O,"[2]; 2 to 8° C., Initial",6.00 Wt. Percent
same,Total Impurities,[2]; [14],0.49 area-percent
same,Wt. Percent H2O,[2]; [14],3.97 Wt. Percent
same,Total Impurities,[2]; [15],0.51 area-percent
same,Wt. Percent H2O,[2]; [15],3.70 Wt. Percent
same,Total Impurities,[2]; [7],0.37 area-percent
same,Wt. Percent H2O,[2]; [7],6.00 Wt. Percent
same,Total Impurities,[2]; [16],0.50 area-percent
same,Wt. Percent H2O,[2]; [16],3.47 Wt. Percent
same,Total Impurities,[2]; [12],0.61 area-percent
same,Wt. Percent H2O,[2]; [12],3.49 Wt. Percent
same,Total Impurities,"[2]; 40° C. and 75% relative humidity, Initial, HPLC",0.37 area-percent
same,Wt. Percent H2O,"[2]; 40° C. and 75% relative humidity, Initial, Karl Fischer",6.00 Wt. Percent
same,Change during the storage periods,[2]; [17],did not change appreciably
same,Total Impurities,"[3]; 2 to 8° C., 1 Month",0.27 area-percent
same,Wt. Percent H2O,"[3]; 2 to 8° C., 1 Month",2.3 Wt. Percent
same,Total Impurities,"[3]; 2 to 8° C., 2 Months",0.30 area-percent
same,Wt. Percent H2O,"[3]; 2 to 8° C., 2 Months",2.6 Wt. Percent
same,Total Impurities,"[3]; 2 to 8° C., Initial",0.29 area-percent
same,Wt. Percent H2O,"[3]; 2 to 8° C., Initial",2.0 Wt. Percent
same,Total Impurities,[3]; [4],0.34 area-percent
same,Wt. Percent H2O,[3]; [4],2.4 Wt. Percent
same,Total Impurities,[3]; [14],0.38 area-percent
same,Wt. Percent H2O,[3]; [14],2.9 Wt. Percent
same,Total Impurities,[3]; [7],0.29 area-percent
same,Wt. Percent H2O,[3]; [7],2.0 Wt. Percent
same,Total Impurities,[3]; [8],0.41 area-percent
same,Wt. Percent H2O,[3]; [8],3.4 Wt. Percent
same,Total Impurities,[3]; [16],0.40 area-percent
same,Wt. Percent H2O,[3]; [16],3.2 Wt. Percent
same,Total Impurities,[3]; [11],0.34 area-percent
same,Wt. Percent H2O,[3]; [11],3.1 Wt. Percent
same,Total Impurities,[3]; [12],0.34 area-percent
same,Wt. Percent H2O,[3]; [12],3.2 Wt. Percent
same,Total Impurities,[3]; [13],0.29 area-percent
same,Wt. Percent H2O,[3]; [13],2.0 Wt. Percent
same,Change during the storage periods,[3]; [17],did not change appreciably
